Measurements taken from patent US9387249B2, “Methods of treating hypertension with at least one angiotensin II receptor blocker and chlorthalidone” (Takeda Pharmaceutical Company Limited, priority 2008, dated 2016).

Assays:
Assay type in all cases: in vivo, human
[1] = test system: patients with stage 2 hypertension; experiment: Phase 3 randomized double-blind study: safety (adverse events, laboratory tests)
Text: More specifically, as will be discussed in more detail below, the purpose of this study is evaluate the change in 24-hour mean systolic blood pressure (SBP) by ambulatory blood pressure monitoring (ABPM) in response to (5-methyl-2-oxo-1,3-dioxol-4-yl)methyl 2-ethoxy-1-{[2′-(5-oxo-4,5-dihydro-1,2,4-oxadiazol-3-yl)biphenyl-4-yl]methyl}-1H-benzimidazole-7-carboxylate potassium salt plus chlorthalidone compared to placebo plus chlorthalidone for 6 weeks in subjects with uncontrolled essential hypertension. Subjects that qualify for the studied will be discontinued from their current antihypertensive medication. After a 2-week run-in-period, subjects who meet the entry criteria will be given (5-methyl-2-oxo-1,3-dioxol-4-yl)methyl 2-ethoxy-1-{[2′-(5-oxo-4,5-dihydro-1,2,4-oxadiazol-3-yl)biphenyl-4-yl]methyl}-1H-benzimidazole-7-carboxylate potassium salt plus chlorthalidone or placebo plus chlorthalidone once daily for 6 weeks. Blood pressure will be monitored during study visits and ABPM will be used to evaluate blood pressure for 24-hour periods twice during the study. Subjects will receive physical examinations including measurement of vital signs and blood and urine samples will be collected (for analyses related to safety monitoring during study visits). […]

[2] = test system: patients with stage 2 hypertension; experiment: Phase 3 randomized double-blind study: change from baseline in 24-hour mean SBP by ambulatory blood pressure monitoring (ABPM); details: Chlorthalidone 25 mg + placebo once daily, oral, 6 weeks
Procedure: (§1) This is a phase 3, multi-center, randomized, parallel group, double-blind, placebo-controlled, study to evaluate the efficacy and safety of (5-methyl-2-oxo-1,3-dioxol-4-yl)methyl 2-ethoxy-1-{[2′-(5-oxo-4,5-dihydro-1,2,4-oxadiazol-3-yl)biphenyl-4-yl]methyl}-1H-benzimidazole-7-carboxylate potassium salt when combined with chlorthalidone 25 mg once daily (QD) in subjects with uncontrolled essential hypertension.
(§2) More specifically, as will be discussed in more detail below, the purpose of this study is evaluate the change in 24-hour mean systolic blood pressure (SBP) by ambulatory blood pressure monitoring (ABPM) in response to (5-methyl-2-oxo-1,3-dioxol-4-yl)methyl 2-ethoxy-1-{[2′-(5-oxo-4,5-dihydro-1,2,4-oxadiazol-3-yl)biphenyl-4-yl]methyl}-1H-benzimidazole-7-carboxylate potassium salt plus chlorthalidone compared to placebo plus chlorthalidone for 6 weeks in subjects with uncontrolled essential hypertension. Subjects that qualify for the studied will be discontinued from their current antihypertensive medication. […] Blood pressure will be monitored during study visits and ABPM will be used to evaluate blood pressure for 24-hour periods twice during the study. […]

[3] = test system: patients with stage 2 hypertension; experiment: Phase 3 randomized double-blind study: change in clinic SBP; details: chlorthalidone plus placebo once daily
Procedure: as §1, §2

SMILES	Effect on the hypokalemia seen with chlorthalidone alone ([1]; azilsartan medoxomil added to chlorthalidone)	Δ from baseline, mean, Absolute, Mean 24-Hour SBP by ABPM [2]	Absolute reduction in clinic SBP [3]	Hypokalemia, frequency ([1]; chlorthalidone plus placebo compared with chlorthalidone plus azilsartan medoxomil)
CCOc1nc2cccc(C(=O)OCc3oc(=O)oc3C)c2n1Cc1ccc(-c2ccccc2-c2noc(=O)[nH]2)cc1.[K] [Azilsartan medoxomil, (5-methyl-2-oxo-1,3-dioxol-4-yl)methyl 2-ethoxy-1-{[2′-(5-oxo-4,5-dihydro-1,2,4-oxadiazol-3-yl)biphenyl-4-yl]methyl}-1H-benzimidazole-7-carboxylate potassium salt]	attenuated the hypokalemia	–	–	–
NS(=O)(=O)c1cc(C2(O)NC(=O)c3ccccc32)ccc1Cl (stereo not shown) [Chlorthalidone, 2-chloro-5-(1-hydroxy-3-oxo-1,2-dihydroisoindol-1-yl)-benzenesulfonamide]	–	−15.9 mm Hg	−21.8 mm Hg	more frequent
